Assay results as given in ChEMBL document CHEMBL4507277.

How the values were obtained:
[1] = molecular target: Peripheral plasma membrane protein CASK (Homo sapiens) (UniProt O14936); conditions: Compound concentration 1000.0 nM
[2] = molecular target: BMP-2-inducible protein kinase (Homo sapiens) (UniProt Q9NSY1); conditions: Compound concentration 1000.0 nM
[3] = molecular target: Receptor-interacting serine/threonine-protein kinase 2 (Homo sapiens) (UniProt O43353); conditions: Compound concentration 1000.0 nM
[4] = molecular target: Serine/threonine-protein kinase DCLK3 (Homo sapiens) (UniProt Q9C098); conditions: Compound concentration 1000.0 nM
[5] = molecular target: Vascular endothelial growth factor receptor 2 (Homo sapiens) (UniProt P35968); conditions: Compound concentration 1000.0 nM
[6] = molecular target: Ephrin type-B receptor 4 (Homo sapiens) (UniProt P54760); conditions: Compound concentration 1000.0 nM
[7] = molecular target: Serine/threonine-protein kinase pim-2 (Homo sapiens) (UniProt Q9P1W9); conditions: Compound concentration 1000.0 nM
[8] = molecular target: Mast/stem cell growth factor receptor Kit (Homo sapiens) (UniProt P10721); conditions: Compound concentration 1000.0 nM
[9] = system: Tyrosine-protein kinase ABL1 (Homo sapiens), P00519 [Y253F]; conditions: Compound concentration 1000.0 nM
[10] = molecular target: TGF-beta receptor type-2 (Homo sapiens) (UniProt P37173); conditions: Compound concentration 1000.0 nM
[11] = molecular target: Transient receptor potential cation channel subfamily M member 6 (Homo sapiens) (UniProt Q9BX84); conditions: Compound concentration 1000.0 nM
[12] = molecular target: Serine/threonine-protein kinase 24 (Homo sapiens) (UniProt Q9Y6E0); conditions: Compound concentration 1000.0 nM
[13] = molecular target: Sigma non-opioid intracellular receptor 1 (Homo sapiens) (UniProt Q99720); conditions: Compound concentration 10.0 uM
[14] = system: Tyrosine-protein kinase ABL1 (Homo sapiens), P00519 [Q252H]; conditions: Compound concentration 1000.0 nM
[15] = molecular target: Muscarinic acetylcholine receptor M5 (Homo sapiens) (UniProt P08912); conditions: Compound concentration 10.0 uM
[16] = molecular target: Mu-type opioid receptor (Homo sapiens) (UniProt P35372); conditions: Compound concentration 10.0 uM
[17] = molecular target: Tyrosine-protein kinase Fer (Homo sapiens) (UniProt P16591); conditions: Compound concentration 1000.0 nM
[18] = molecular target: Cyclin-dependent kinase 17 (Homo sapiens) (UniProt Q00537); conditions: Compound concentration 1000.0 nM
[19] = molecular target: Discoidin domain-containing receptor 2 (Homo sapiens) (UniProt Q16832); conditions: Compound concentration 1000.0 nM
[20] = molecular target: Mitogen-activated protein kinase kinase kinase 5 (Homo sapiens) (UniProt Q99683); conditions: Compound concentration 1000.0 nM
[21] = molecular target: Mitogen-activated protein kinase 15 (Homo sapiens) (UniProt Q8TD08); conditions: Compound concentration 1000.0 nM
[22] = molecular target: Ribosomal protein S6 kinase alpha-5 (Homo sapiens) (UniProt O75582); conditions: Compound concentration 1000.0 nM
[23] = molecular target: Citron Rho-interacting kinase (Homo sapiens) (UniProt O14578); conditions: Compound concentration 1000.0 nM
[24] = molecular target: GABA-A receptor; anion channel (Rattus norvegicus) (UniProt O09028+P15431+P18506+P18508+P19969+P20236+P23574+P23576+P28471+P28473+P30191+P62813+P63079+P63138+Q91ZM7+Q9ES14); conditions: Compound concentration 10.0 uM
[25] = molecular target: Angiopoietin-1 receptor (Homo sapiens) (UniProt Q02763); conditions: Compound concentration 1000.0 nM
[26] = molecular target: Ephrin type-B receptor 1 (Homo sapiens) (UniProt P54762); conditions: Compound concentration 1000.0 nM
[27] = molecular target: Receptor tyrosine-protein kinase erbB-4 (Homo sapiens) (UniProt Q15303); conditions: Compound concentration 1000.0 nM
[28] = molecular target: Myosin light chain kinase (Homo sapiens) (UniProt Q32MK0); conditions: Compound concentration 1000.0 nM
[29] = molecular target: Mitogen-activated protein kinase 4 (Homo sapiens) (UniProt P31152); conditions: Compound concentration 1000.0 nM
[30] = molecular target: Serine/threonine-protein kinase PAK 1 (Homo sapiens) (UniProt Q13153); conditions: Compound concentration 1000.0 nM
[31] = molecular target: Wee1-like protein kinase (Homo sapiens) (UniProt P30291); conditions: Compound concentration 1000.0 nM
[32] = molecular target: Casein kinase I isoform gamma-2 (Homo sapiens) (UniProt P78368); conditions: Compound concentration 1000.0 nM
[33] = molecular target: Atypical kinase COQ8B, mitochondrial (Homo sapiens) (UniProt Q96D53); conditions: Compound concentration 1000.0 nM
[34] = molecular target: Phosphatidylinositol 3-kinase catalytic subunit type 3 (Homo sapiens) (UniProt Q8NEB9); conditions: Compound concentration 1000.0 nM
[35] = molecular target: Glycogen synthase kinase-3 beta (Homo sapiens) (UniProt P49841); conditions: Compound concentration 1000.0 nM
[36] = molecular target: Alpha-2C adrenergic receptor (Homo sapiens) (UniProt P18825); conditions: Compound concentration 10.0 uM
[37] = molecular target: Casein kinase I isoform gamma-3 (Homo sapiens) (UniProt Q9Y6M4); conditions: Compound concentration 1000.0 nM
[38] = molecular target: Serine/threonine-protein kinase 17A (Homo sapiens) (UniProt Q9UEE5); conditions: Compound concentration 1000.0 nM
[39] = molecular target: Dual specificity mitogen-activated protein kinase kinase 1 (Homo sapiens) (UniProt Q02750); conditions: Compound concentration 1000.0 nM
[40] = molecular target: Serine/threonine-protein kinase PAK 5 (Homo sapiens) (UniProt Q9P286); conditions: Compound concentration 1000.0 nM
[41] = molecular target: Ephrin type-A receptor 5 (Homo sapiens) (UniProt P54756); conditions: Compound concentration 1000.0 nM
[42] = molecular target: Inhibitor of nuclear factor kappa-B kinase subunit alpha (Homo sapiens) (UniProt O15111); conditions: Compound concentration 1000.0 nM
[43] = molecular target: Mitogen-activated protein kinase 7 (Homo sapiens) (UniProt Q13164); conditions: Compound concentration 1000.0 nM
[44] = molecular target: Ribosomal protein S6 kinase alpha-4 (Homo sapiens) (UniProt O75676); conditions: Compound concentration 1000.0 nM

Sequence of Muscarinic acetylcholine receptor M5 (Homo sapiens) (P08912 whole entry): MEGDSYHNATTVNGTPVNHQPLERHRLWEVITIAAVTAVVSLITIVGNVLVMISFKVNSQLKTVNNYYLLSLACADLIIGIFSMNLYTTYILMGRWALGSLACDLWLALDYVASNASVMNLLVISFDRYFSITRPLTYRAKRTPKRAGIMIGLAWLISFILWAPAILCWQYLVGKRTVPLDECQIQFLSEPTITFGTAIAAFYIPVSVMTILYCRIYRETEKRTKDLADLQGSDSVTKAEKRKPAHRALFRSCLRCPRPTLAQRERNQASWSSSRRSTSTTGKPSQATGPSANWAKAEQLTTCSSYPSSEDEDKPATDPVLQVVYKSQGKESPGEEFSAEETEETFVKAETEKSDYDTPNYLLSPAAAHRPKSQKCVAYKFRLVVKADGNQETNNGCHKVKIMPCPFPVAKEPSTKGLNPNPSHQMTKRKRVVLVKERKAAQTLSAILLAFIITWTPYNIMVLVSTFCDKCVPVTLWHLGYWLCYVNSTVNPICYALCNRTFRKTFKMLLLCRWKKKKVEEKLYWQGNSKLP
Sequence of BMP-2-inducible protein kinase (Homo sapiens) (Q9NSY1 whole entry, looked up): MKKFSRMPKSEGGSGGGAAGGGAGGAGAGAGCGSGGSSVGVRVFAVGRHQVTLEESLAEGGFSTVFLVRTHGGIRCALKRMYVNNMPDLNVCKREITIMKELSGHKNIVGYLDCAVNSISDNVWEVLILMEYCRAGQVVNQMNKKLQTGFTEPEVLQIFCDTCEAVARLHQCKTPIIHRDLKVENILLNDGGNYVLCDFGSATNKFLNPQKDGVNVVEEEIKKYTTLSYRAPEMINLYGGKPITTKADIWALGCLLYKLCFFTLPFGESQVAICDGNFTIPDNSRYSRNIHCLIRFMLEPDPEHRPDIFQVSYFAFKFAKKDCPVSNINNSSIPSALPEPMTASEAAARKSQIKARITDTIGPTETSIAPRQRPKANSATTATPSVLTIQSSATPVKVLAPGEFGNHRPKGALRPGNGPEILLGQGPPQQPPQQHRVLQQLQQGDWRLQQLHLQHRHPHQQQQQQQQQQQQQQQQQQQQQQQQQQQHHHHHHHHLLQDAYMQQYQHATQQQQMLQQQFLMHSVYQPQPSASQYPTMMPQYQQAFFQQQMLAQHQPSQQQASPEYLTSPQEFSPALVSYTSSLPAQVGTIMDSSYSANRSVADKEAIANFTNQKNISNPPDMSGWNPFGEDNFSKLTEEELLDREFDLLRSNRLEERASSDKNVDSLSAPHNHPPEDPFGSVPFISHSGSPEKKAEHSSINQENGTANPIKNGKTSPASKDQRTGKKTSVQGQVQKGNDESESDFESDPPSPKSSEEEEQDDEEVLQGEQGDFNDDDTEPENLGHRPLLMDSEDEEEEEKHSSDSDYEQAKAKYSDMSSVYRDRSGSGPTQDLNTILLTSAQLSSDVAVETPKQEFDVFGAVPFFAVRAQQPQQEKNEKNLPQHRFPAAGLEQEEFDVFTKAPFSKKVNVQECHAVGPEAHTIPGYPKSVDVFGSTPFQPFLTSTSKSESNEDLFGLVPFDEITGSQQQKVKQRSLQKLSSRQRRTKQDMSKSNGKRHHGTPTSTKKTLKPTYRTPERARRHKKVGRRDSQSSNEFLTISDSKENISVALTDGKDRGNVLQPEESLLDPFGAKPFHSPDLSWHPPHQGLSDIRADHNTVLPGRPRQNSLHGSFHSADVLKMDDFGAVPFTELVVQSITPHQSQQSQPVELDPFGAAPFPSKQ
Sequence of Dual specificity mitogen-activated protein kinase kinase 1 (Homo sapiens) (Q02750 whole entry): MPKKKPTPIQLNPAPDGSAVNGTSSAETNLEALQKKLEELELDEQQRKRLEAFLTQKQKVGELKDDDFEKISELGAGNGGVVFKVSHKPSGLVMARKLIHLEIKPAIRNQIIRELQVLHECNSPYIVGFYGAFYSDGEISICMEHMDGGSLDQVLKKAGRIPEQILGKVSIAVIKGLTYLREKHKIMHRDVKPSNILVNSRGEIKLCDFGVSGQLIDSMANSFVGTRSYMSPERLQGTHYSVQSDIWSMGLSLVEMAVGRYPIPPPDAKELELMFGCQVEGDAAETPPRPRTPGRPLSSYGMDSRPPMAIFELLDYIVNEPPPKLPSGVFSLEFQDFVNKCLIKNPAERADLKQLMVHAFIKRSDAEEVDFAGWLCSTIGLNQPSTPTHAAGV
Sequence of Transient receptor potential cation channel subfamily M member 6 (Homo sapiens) (Q9BX84 whole entry): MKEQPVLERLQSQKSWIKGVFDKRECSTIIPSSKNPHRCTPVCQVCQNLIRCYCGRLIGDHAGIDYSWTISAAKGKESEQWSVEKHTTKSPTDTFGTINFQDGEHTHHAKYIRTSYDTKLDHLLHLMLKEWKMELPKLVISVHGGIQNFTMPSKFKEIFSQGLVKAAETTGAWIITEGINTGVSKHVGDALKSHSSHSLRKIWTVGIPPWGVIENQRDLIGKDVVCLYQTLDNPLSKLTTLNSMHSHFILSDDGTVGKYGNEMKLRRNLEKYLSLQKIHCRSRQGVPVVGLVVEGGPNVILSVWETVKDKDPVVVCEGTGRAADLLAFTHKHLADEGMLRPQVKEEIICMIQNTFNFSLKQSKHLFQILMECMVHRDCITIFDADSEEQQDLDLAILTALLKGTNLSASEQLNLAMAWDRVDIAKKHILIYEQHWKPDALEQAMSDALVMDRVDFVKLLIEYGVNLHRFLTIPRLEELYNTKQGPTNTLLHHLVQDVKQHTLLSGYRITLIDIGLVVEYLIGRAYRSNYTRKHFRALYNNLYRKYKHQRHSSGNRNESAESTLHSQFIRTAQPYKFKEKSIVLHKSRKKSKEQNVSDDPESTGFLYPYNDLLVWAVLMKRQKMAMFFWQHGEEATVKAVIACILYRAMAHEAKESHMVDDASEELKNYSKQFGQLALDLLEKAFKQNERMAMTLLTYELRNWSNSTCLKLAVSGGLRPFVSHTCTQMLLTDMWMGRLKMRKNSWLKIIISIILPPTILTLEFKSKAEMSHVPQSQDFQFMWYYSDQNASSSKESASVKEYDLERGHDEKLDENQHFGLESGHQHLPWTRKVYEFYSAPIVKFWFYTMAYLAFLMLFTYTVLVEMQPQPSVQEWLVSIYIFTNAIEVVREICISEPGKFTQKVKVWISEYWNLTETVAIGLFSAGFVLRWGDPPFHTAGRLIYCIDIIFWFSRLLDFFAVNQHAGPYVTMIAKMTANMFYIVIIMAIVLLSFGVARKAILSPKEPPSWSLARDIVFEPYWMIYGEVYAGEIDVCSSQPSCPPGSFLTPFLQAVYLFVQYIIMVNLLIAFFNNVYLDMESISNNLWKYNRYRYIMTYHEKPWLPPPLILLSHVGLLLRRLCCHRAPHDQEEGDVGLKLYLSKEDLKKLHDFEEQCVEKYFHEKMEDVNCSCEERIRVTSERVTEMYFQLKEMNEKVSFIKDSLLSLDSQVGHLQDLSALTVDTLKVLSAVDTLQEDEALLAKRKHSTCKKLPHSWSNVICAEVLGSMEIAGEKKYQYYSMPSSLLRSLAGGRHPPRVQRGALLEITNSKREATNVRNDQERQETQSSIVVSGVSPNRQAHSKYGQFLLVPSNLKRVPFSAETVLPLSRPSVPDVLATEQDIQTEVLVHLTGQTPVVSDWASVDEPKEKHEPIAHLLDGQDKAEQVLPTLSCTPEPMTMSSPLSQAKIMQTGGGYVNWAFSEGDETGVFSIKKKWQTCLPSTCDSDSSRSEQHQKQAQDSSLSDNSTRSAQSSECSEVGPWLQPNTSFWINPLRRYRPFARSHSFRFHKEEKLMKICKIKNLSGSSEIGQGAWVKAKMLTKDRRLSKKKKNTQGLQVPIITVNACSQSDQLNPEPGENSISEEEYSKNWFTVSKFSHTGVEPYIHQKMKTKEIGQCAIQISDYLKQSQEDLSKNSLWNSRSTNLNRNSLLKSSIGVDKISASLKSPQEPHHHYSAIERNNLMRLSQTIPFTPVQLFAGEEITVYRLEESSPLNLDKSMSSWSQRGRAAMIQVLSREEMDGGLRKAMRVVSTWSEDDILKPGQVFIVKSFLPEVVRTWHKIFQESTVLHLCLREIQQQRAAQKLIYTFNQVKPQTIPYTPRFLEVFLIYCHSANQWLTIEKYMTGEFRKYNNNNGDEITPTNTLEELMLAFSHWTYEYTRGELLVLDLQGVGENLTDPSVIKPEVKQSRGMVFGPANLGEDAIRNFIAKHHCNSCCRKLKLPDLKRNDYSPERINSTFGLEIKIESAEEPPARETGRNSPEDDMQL
Sequence of Serine/threonine-protein kinase 24 (Homo sapiens) (Q9Y6E0 whole entry, looked up): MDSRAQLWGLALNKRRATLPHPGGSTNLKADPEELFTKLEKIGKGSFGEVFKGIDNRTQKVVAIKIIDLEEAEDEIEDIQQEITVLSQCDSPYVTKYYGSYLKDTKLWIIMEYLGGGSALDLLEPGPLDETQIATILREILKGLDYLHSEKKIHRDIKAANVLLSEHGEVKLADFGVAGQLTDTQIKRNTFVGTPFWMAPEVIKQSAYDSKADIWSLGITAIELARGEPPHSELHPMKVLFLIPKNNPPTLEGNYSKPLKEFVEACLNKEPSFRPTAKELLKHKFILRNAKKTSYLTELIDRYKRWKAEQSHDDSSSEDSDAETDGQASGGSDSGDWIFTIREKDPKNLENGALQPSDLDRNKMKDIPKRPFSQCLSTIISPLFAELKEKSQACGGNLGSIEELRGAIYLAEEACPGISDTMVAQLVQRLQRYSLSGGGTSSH
Sequence of Mu-type opioid receptor (Homo sapiens) (P35372 whole entry): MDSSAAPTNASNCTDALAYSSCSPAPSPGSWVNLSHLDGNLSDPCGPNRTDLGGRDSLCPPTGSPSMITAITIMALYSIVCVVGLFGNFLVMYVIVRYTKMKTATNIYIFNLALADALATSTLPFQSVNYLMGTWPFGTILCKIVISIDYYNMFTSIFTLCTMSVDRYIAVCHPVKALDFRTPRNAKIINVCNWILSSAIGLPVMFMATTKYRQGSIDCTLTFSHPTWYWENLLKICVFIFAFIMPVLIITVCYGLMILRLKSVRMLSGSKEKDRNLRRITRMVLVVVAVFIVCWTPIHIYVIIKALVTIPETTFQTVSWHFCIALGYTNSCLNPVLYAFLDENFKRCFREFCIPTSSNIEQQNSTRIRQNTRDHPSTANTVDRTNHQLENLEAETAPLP

CCS(=O)(=O)c1cc2cc(C[C@@](O)(CC(C)(C)c3ccc(F)cc3C(N)=O)C(F)(F)F)[nH]c2cn1
residual activity [1]: 100% | residual activity [2]: 69% | residual activity [3]: 100% | residual activity [4]: 100% | residual activity [5]: 92% | residual activity [6]: 100% | residual activity [7]: 99% | residual activity [8]: 100% | residual activity [9]: 72% | residual activity [10]: 100% | residual activity [11]: 72% | residual activity [12]: 0% | inhibition [13]: 8.26% | residual activity [14]: 79% | inhibition [15]: -0.62% | inhibition [16]: 7.98% | residual activity [17]: 74% | residual activity [18]: 82% | residual activity [19]: 100% | residual activity [20]: 100% | residual activity [21]: 100% | residual activity [22]: 69% | residual activity [23]: 96% | inhibition [24]: 19.5% | residual activity [25]: 94% | residual activity [26]: 92% | residual activity [27]: 100% | residual activity [28]: 80% | residual activity [29]: 84% | residual activity [30]: 100% | residual activity [31]: 100% | residual activity [32]: 95% | residual activity [33]: 100% | residual activity [34]: 96% | residual activity [35]: 90% | inhibition [36]: 5.83% | residual activity [37]: 100% | residual activity [38]: 80% | residual activity [39]: 68% | residual activity [40]: 100% | residual activity [41]: 100% | residual activity [42]: 95% | residual activity [43]: 81% | residual activity [44]: 78%

CCS(=O)(=O)c1cc2cc(C[C@](O)(CC(C)(C)c3ccc(F)cc3C(N)=O)C(F)(F)F)[nH]c2cn1
residual activity [1]: 100% | residual activity [2]: 83% | residual activity [3]: 67% | residual activity [4]: 100% | residual activity [5]: 83% | residual activity [6]: 100% | residual activity [7]: 100% | residual activity [8]: 95% | residual activity [9]: 93% | residual activity [10]: 100% | residual activity [11]: 86% | residual activity [12]: 86% | inhibition [13]: 10.1% | residual activity [14]: 100% | inhibition [15]: 1.86% | inhibition [16]: 7.51% | residual activity [17]: 96% | residual activity [18]: 88% | residual activity [19]: 88% | residual activity [20]: 100% | residual activity [21]: 100% | residual activity [22]: 100% | residual activity [23]: 100% | inhibition [24]: 11% | residual activity [25]: 90% | residual activity [26]: 86% | residual activity [27]: 100% | residual activity [28]: 74% | residual activity [29]: 100% | residual activity [30]: 95% | residual activity [31]: 100% | residual activity [32]: 93% | residual activity [33]: 78% | residual activity [34]: 100% | residual activity [35]: 100% | inhibition [36]: -1.88% | residual activity [37]: 100% | residual activity [38]: 80% | residual activity [39]: 91% | residual activity [40]: 100% | residual activity [41]: 100% | residual activity [42]: 100% | residual activity [43]: 97% | residual activity [44]: 98%
